18 compounds from patent publication US8354436B2 (4SC Discovery GmbH, priority 2011, dated 2013) can be followed below.

pIC50: −log10 of the molar value. Where two headings read alike, the source gives them in different places. Where only a bound is given, the exact number is not on record here.

Holding throughout (format): cell-based
Common to all, as to conditions: 48 hours

One experiment concerns IL-17FF. Nature of the experiment: IL-17FF production by PHA-stimulated human PBMC (human IL-17F ELI-Pair). In short, it runs like this:
(§1)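 Healthy-donor PBMC (1×10^5 cells/well) activated with 2 μg/ml PHA and incubated with compounds for 48 h. Supernatant IL-17AA/AF read by Luminex BioPlex, IL-17AA, IL-17FF and IFN-γ by ELISA. Screening at 10, 1, 0.1 and 0.01 μM; IC50 from semilogarithmic titrations.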

The test system of experiment [1] is PBMC from healthy human donors. The experiment is described as follows: T cell proliferation assay (PHA-stimulated human PBMC, BrdU ELISA). The procedure, abridged:
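Healthy-donor PBMC isolated on Ficoll, seeded at 1×10⁵ cells/well in RPMI with 10% dialysed FCS, stimulated with 2 μg/ml PHA in presence of test compound. Proliferation read after 48 hours by BrdU-incorporation ELISA.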

For a further experiment, the system named is IFN-γ. The experiment is described as follows: IFN-γ production by PHA-stimulated human PBMC (OptEIA human IFN-g ELISA). The procedure, abridged:
as §1

The mark [2] stands for this setting: human PBMC, 2 μg/ml PHA, read-out: B: IC50 (IL-17FF).
Setting [3] is: human PBMC, 2 μg/ml PHA, read-out: D: IC50 (Tcell proliferation).
The mark [4] stands for this setting: human PBMC, 2 μg/ml PHA, read-out: C: IC50 (IFNγ).
Where [5] appears, read: PHA-stimulated human PBMC, column B, read-out: IC50 (IL-17FF).
Where [6] appears, read: PHA-stimulated human PBMC, column D, read-out: IC50 (Tcell proliferation).
[7] abbreviates: PHA-stimulated human PBMC, column C, read-out: IC50 (IFNγ).

For `Fc1cccc(Cl)c1-c1noc(-c2cnn(-c3cccc(Cl)c3)c2C(F)(F)F)c1-c1nncs1` [Example B-8, 3-(2-chloro-6-fluorophenyl)-5-(1-(3-chlorophenyl)-5-(trifluoromethyl)-1H-pyrazol-4-yl)-4-(1,3,4-thiadiazol-2-yl)isoxazole], the pIC50 (with IL-17FF (setting [2]); in experiment [1] (setting [3]); in the experiment on IFN-γ (setting [4])) was more than 8.00 in each case.
For `CCOC(=O)c1c(-c2ccccc2F)noc1-c1cnn(-c2cccc(Cl)c2)c1C(F)(F)F` [IB-47, ethyl 5-(1-(3-chlorophenyl)-5-(trifluoromethyl)-1H-pyrazol-4-yl)-3-(2-fluorophenyl)isoxazole-4-carboxylate], the pIC50 (in the experiment on IL-17FF (setting [5]); in experiment [1] (setting [6]); in the experiment with IFN-γ (setting [7])) was 7.00 to 8.00 in each case.
Take `COC(=O)c1c(-c2c(Cl)cccc2Cl)noc1-c1cnn(-c2cccc(F)c2)c1C(F)(F)F` [Example I-109, methyl 3-(2,6-dichlorophenyl)-5-(1-(3-fluorophenyl)-5-(trifluoromethyl)-1H-pyrazol-4-yl)isoxazole-4-carboxylate]: the pIC50 (in the experiment with IL-17FF (setting [5]); in experiment [1] (setting [6]); in the experiment on IFN-γ (setting [7])) was more than 8.00 in each case.
In the case of `CCOC(=O)c1c(-c2c(F)cccc2Cl)noc1-c1cnn(-c2ccc([N+](=O)[O-])cc2)c1C(F)(F)F` [IB-94, ethyl 3-(2-chloro-6-fluorophenyl)-5-(1-(4-nitrophenyl)-5-(trifluoromethyl)-1H-pyrazol-4-yl)isoxazole-4-carboxylate], the pIC50 (in the experiment with IL-17FF (setting [5]); in experiment [1] (setting [6]); with IFN-γ (setting [7])) was 5.00 to 6.00 in each case.
`O=C(c1c(-c2c(F)cccc2Cl)noc1-c1cnn(-c2cccc(Cl)c2)c1C(F)(F)F)N1CCOCC1` [IB-35, (3-(2-chloro-6-fluorophenyl)-5-(1-(3-chlorophenyl)-5-(trifluoromethyl)-1H-pyrazol-4-yl)isoxazol-4-yl)(morpholino)methanone]: the pIC50 was 6.00 to 7.00 in the experiment on IL-17FF (setting [5]), 5.00 to 6.00 in experiment [1] (setting [6]) and 6.00 to 7.00 in the experiment on IFN-γ (setting [7]).
As to `CCOC(=O)c1c(-c2c(F)cccc2Cl)noc1-c1cnn(-c2ccc(NC(C)=O)cc2)c1C(F)(F)F` [IB-99, ethyl 5-(1-(4-acetamidophenyl)-5-(trifluoromethyl)-1H-pyrazol-4-yl)-3-(2-chloro-6-fluorophenyl)isoxazole-4-carboxylate], the pIC50 (in the experiment with IL-17FF (setting [5]); in experiment [1] (setting [6]); with IFN-γ (setting [7])) was 5.00 to 6.00 each time.
On to `COC(=O)c1c(-c2c(F)cccc2Cl)noc1-c1cnn(-c2ccc(F)cc2)c1C(F)(F)F` [Example I-3, methyl 3-(2-chloro-6-fluorophenyl)-5-(1-(4-fluorophenyl)-5-(trifluoromethyl)-1H-pyrazol-4-yl)isoxazole-4-carboxylate], for which the pIC50 with IL-17FF (setting [5]) was more than 8.00; in experiment [1] (setting [6]), 7.00 to 8.00; in the experiment with IFN-γ (setting [7]), more than 8.00.
As for `CCOC(=O)c1c(-c2c(F)cccc2Cl)noc1-c1cnn(-c2ccccc2N)c1C(F)(F)F` [IB-98, ethyl 5-(1-(2-aminophenyl)-5-(trifluoromethyl)-1H-pyrazol-4-yl)-3-(2-chloro-6-fluorophenyl)isoxazole-4-carboxylate], the pIC50 (with IL-17FF (setting [5]); in experiment [1] (setting [6]); in the experiment with IFN-γ (setting [7])) was 7.00 to 8.00 throughout.
Take `COC(=O)c1c(-c2c(F)cccc2Cl)noc1-c1cnn(CC(F)(F)F)c1C(F)(F)F` [Example I-65, methyl 3-(2-chloro-6-fluorophenyl)-5-(1-(2,2,2-trifluoroethyl)-5-(trifluoromethyl)-1H-pyrazol-4-yl)isoxazole-4-carboxylate]: the pIC50 (in the experiment with IL-17FF (setting [5]); in experiment [1] (setting [6]); in the experiment on IFN-γ (setting [7])) was 7.00 to 8.00 in each case.
As for `COC(=O)c1c(-c2c(F)cccc2Cl)noc1-c1cnn(-c2cccnc2)c1C(F)(F)F` [IB-67, methyl 3-(2-chloro-6-fluorophenyl)-5-(1-(pyridin-3-yl)-5-(trifluoromethyl)-1H-pyrazol-4-yl)isoxazole-4-carboxylate], the pIC50 (with IL-17FF (setting [5]); in experiment [1] (setting [6]); in the experiment on IFN-γ (setting [7])) was 7.00 to 8.00 in each case.
Regarding `CCOC(=O)c1c(-c2c(F)cccc2Cl)noc1-c1cnn(-c2ccccc2NC(C)=O)c1C(F)(F)F` [IB-1], the pIC50 in the experiment on IL-17FF (setting [5]) is 5.00 to 6.00; in experiment [1] (setting [6]) it was 5.00 to 6.00; with IFN-γ (setting [7]), 6.00 to 7.00.
For `CNC(=O)c1c(-c2ccccc2Cl)noc1-c1cnn(-c2cccc(F)c2)c1C(F)(F)F` [Example I-96, 3-(2-chlorophenyl)-5-(1-(3-fluorophenyl)-5-(trifluoro-methyl)-1H-pyrazol-4-yl)-N-methylisoxazole-4-carboxamide], the pIC50 (in the experiment with IL-17FF (setting [5]); in experiment [1] (setting [6]); in the experiment on IFN-γ (setting [7])) was 6.00 to 7.00 in each case.
`CON(C)C(=O)c1c(-c2c(F)cccc2Cl)noc1-c1cnn(-c2cccnc2)c1C(F)(F)F` [IB-56, 3-(2-chloro-6-fluorophenyl)-N-methoxy-N-methyl-5-(1-(pyridin-3-yl)-5-(trifluoromethyl)-1H-pyrazol-4-yl)isoxazole-4-carboxamide]: the pIC50 (in the experiment with IL-17FF (setting [5]); in experiment [1] (setting [6]); in the experiment with IFN-γ (setting [7])) was 5.00 to 6.00 in each case.
As to `CCOC(=O)c1c(-c2ccncc2F)noc1-c1cnn(-c2cccc(NC(C)=O)c2)c1C(F)(F)F` [IB-6, ethyl 5-(1-(3-acetamidophenyl)-5-(trifluoromethyl)-1H-pyrazol-4-yl)-3-(3-fluoropyridin-4-yl)isoxazole-4-carboxylate], the pIC50 with IL-17FF (setting [5]) was 7.00 to 8.00; in experiment [1] (setting [6]) it was 6.00 to 7.00; with IFN-γ (setting [7]), more than 8.00.
The matching figures for `CON(C)C(=O)c1c(-c2ccccc2F)noc1-c1cnn(-c2cccc(F)c2)c1C(F)(F)F` [Example I-94, 3-(2-fluorophenyl)-5-(1-(3-fluorophenyl)-5-(trifluoromethyl)-1H-pyrazol-4-yl)-N-methoxy-N-methylisoxazole-4-carboxamide]: 5.00 to 6.00, 5.00 to 6.00 and 5.00 to 6.00.
Consider `COc1csc(-c2c(-c3c(F)cccc3Cl)noc2-c2cnn(-c3cccc(F)c3)c2C(F)(F)F)n1` [Example 10, 3-(2-chloro-6-fluorophenyl)-5-(1-(3-fluorophenyl)-5-(trifluoromethyl)-1H-pyrazol-4-yl)-4-(4-methoxythiazol-2-yl)isoxazole], for which the pIC50 was 6.00 to 7.00 with IL-17FF (setting [2]), 7.00 to 8.00 in experiment [1] (setting [3]) and 7.00 to 8.00 with IFN-γ (setting [4]).
Take `CCOC(=O)c1c(-c2onc(-c3c(F)cccc3Cl)c2C(=O)OC)cnn1-c1ccc(F)cc1` [Example I-26, methyl 3-(2-chloro-6-fluorophenyl)-5-(5-(ethoxycarbonyl)-1-(4-fluorophenyl)-1H-pyrazol-4-yl)isoxazole-4-carboxylate]: the pIC50 (in the experiment with IL-17FF (setting [5]); in experiment [1] (setting [6]); with IFN-γ (setting [7])) was 5.00 to 6.00 each time.
Consider `COC(=O)c1c(-c2c(F)cccc2Cl)noc1-c1cnn(C2CCS(=O)(=O)C2)c1C(F)(F)F` (stereo not drawn) [Example I-103, methyl 3-(2-chloro-6-fluorophenyl)-5-(1-(3-hydrazinyltetrahy-drothiophene 1,1-dioxide)-5-(trifluoromethyl)-1H-pyrazol-4-yl)isoxazole-4-carboxylate], for which the pIC50 (in the experiment on IL-17FF (setting [5]); in experiment [1] (setting [6]); with IFN-γ (setting [7])) was 6.00 to 7.00 in each case.
